Data: patent US20070212360A1, “Modulation of mitochondrial oxygen consumption for therapeutic purposes” (priority 2006, published 2007)

Legend:
RKO and RKOShHIF1α cells = test: In vitro oxygen consumption of RKO and RKOShHIF1α cells; format: cell-based, human; settings: 0.5% O2 24 h
Description: FIG. 7. Inhibition of HIF1 and PDK1 increases oxygen consumption in vitro and in vivo. (a) Western blots of extracts from RKO and Su.86 cells exposed to normoxia (N) or hypoxia (H) (0.5% O2) for 24 h in the presence or absence of 2 ng/ml echinomycin probed for the indicated proteins. (b) Oxygen consumption rates of RKO and RKOShHIF1α cells (left) and Su.86 cells (right) after 24 h treatment with normoxia or hypoxia (0.5% O2) with or without 2 ng/ml echinomycin. Data are normalized to normoxic samples. (c) Relative oxygen consumption of RKO cells treated with hypoxia (0.5% O2) for 24 h in the presence of increasing concentrations of echinomycin. (d) Oxygen consumption rates of freshly explanted tumor tissue from RKO (n=16) and RKOShHIF1α (n=8) xenografts. (e) Oxygen consumption rates of RKO and RKOShHIF1 tumors from mice treated with 0.12 mg/kg echinomycin ip 24 h prior (n=8), or 50 mg/kg DCA ip 4 h prior (n=8). Data is normalized to PBS treated controls (n=8-16). (*) indicate a significant difference relative to control (p<0.05).
Oxygen consumption measurements. Cells were trypsinized and suspended at 3×10^6 to 6×10^6 cells per ml in normoxic DMEM+10% FBS. Oxygen consumption was measured in a 0.5 ml volume using an Oxytherm electrode unit (Hansatech, Norfolk, UK). […] Oxygen consumption was measured as above in a 1 ml volume and normalized to tissue weight.

[1] = test system: HIF1 responsive luciferase reporter in RKO cells; test: 5×HRE-luciferase reporter assay in vitro; format: cell-based, human; settings: 0.5% O2 24 h, increasing concentrations, dose dependent
Description: FIG. 8. Increasing oxygen consumption by inhibition of PDK activity increases tumor hypoxia. (a) Luciferase activity of wildtype and HIF1α knockdown RKO cells stably transfected with a HIF1 responsive luciferase reporter gene. Cells were exposed to 0.5% O2 for 24 hours in triplicate. Luminescence is normalized to normoxic HIF wildtype cells. (b) Luciferase activity of wildtype RKO HIF1 reporter cells exposed to 0.5% O2 for 24 hours in the presence of increasing concentrations of echinomycin. Data are normalized to the increase in signal observed in the absence of drug. (c) Bioluminescent imaging in vivo. Images show a representative animal bearing an RKO reporter tumor on the left flank and an RKOShHIF1α reporter tumor on the right flank as a function of time after ip injection of 50 mg/kg DCA. […] (d) Quantification of in vivo bioluminescence. […] The data represent the mean of three independent experiments, each comprising 5 RKO and 5 RKOShHIF1α reporter tumors.
Luciferase reporter assay. […] Cells were exposed to 0.5% O2 for 24 hr, and luciferase activity was measured in triplicate using a luciferase reporter gene assay kit (Roche) and a Monolight 2010 luminometer (Analytical Luminescence Laboratory). […]

[2] = test system: RKO and RKOShHIF1α tumors; test: Tumor hypoxia by pimonidazole immunofluorescence; format: in vivo, mouse
Description: FIG. 9. Increasing oxygen consumption by inhibition of HIF increases tumor hypoxia. (a-d) Pimonidazole staining of tumor sections from RKO (a,b) and RKOShHIF1α (c,d) tumors 24 h after treatment with PBS (a,c) or echinomycin (b,d). The tumor section is outlined in white, pimonidazole staining is shown in green, and the necrotic areas and cutting artifacts are shown in gray. (e) The mean hypoxic fraction of RKO and RKOShHIF1α tumors 24 h after treatment with PBS or echinomycin (n=4-5 tumors per group). Error bars represent the standard error of the mean. (*) indicates a significant difference (p<0.05).
Detection of tumor hypoxia by pimonidazole immunofluorescence. Mice bearing 100-300 mm^3 subcutaneous RKO and RKOshHIF tumors on either flank were treated with 0.12 mg/kg echinomycin ip or saline control, and 24 h later they were injected with the hypoxia marker drug pimonidazole (60 mg/kg ip) (Millipore, Temecula, Calif.). Three hours after pimonidazole injection, tumors were excised, and frozen in Tissue-Tek O.C.T. compound. Frozen sections (10 μm thick) from the center regions of tumors were cut, air dried, and fixed for 15 min in acetone at 4 C. Slides were then air dried, rehydrated in PBS, and blocked for 30 min in 4% FBS, 5% non-fat milk, and 0.1% Triton X-100 in PBS. Slides were incubated for 1 hr at room temperature with a FITC-conjugated monoclonal antibody against pimonidazole (Millipore) diluted 1:20 in blocking solution. Slides were washed, counterstained with 50 nM propidium iodide (PI), and mounted under a coverslip in Vectashield medium (Vector Labs, Burlingame, Calif.).
FITC and Pi fluorescent signals for entire tumor sections (one section per tumor) were acquired using a 4× objective lens on a Nikon Eclipse E800 microscope equipped with a motorized scanning stage, a 12-bit QImaging camera (OImaging, Burnaby, Canada), and Bioquant imaging software (Bioquant, Nashville, Tenn.). Acquisition parameters were held constant for all samples. ImageJ software (NIH, Bethesda, Md.) was used to analyze the resulting tiled images. […]

[3] = 24 h after 0.12 mg/kg echinomycin ip vs vehicle

Compound: CS[C@H]1SC[C@H]2C(=O)N(C)[C@@H](C(C)C)C(=O)OC[C@@H](NC(=O)c3cnc4ccccc4n3)C(=O)N[C@@H](C)C(=O)N(C)[C@@H]1C(=O)N(C)[C@@H](C(C)C)C(=O)OC[C@@H](NC(=O)c1cnc3ccccc3n1)C(=O)N[C@@H](C)C(=O)N2C [echinomycin]
- effect on HIF1-dependent reduction in oxygen consumption in parental cells (RKO and RKOShHIF1α cells; RKO parental cells, increasing concentrations): dose-dependent block
- effect on oxygen consumption in RKOShHIF1α cells (RKO and RKOShHIF1α cells; RKOShHIF1α cells, 2 ng/ml): no effect
- hypoxic induction of luciferase in RKO reporter cells in vitro [1]: completely inhibited
- extent of hypoxia in RKOShHIF1α tumors (pimonidazole) [2, 3]: no significant effect
- hypoxic fraction of RKO tumors (pimonidazole) [2, 3]: increase in the hypoxic fraction
- extent of necrosis in tumor sections ([2]; four treatment groups (RKO, RKOShHIF1α; echinomycin or vehicle)): no difference
